{"source": "patent US20190343926A1", "about": "(priority 2017, published 2019)", "key": {"[1]": {"conditions": "cited from earlier work"}, "[2]": {"conditions": "35 mU/kg IV every six minutes, ten bursts"}, "[3]": {"conditions": "0.25 mU/kg/min continuous IV insulin infusion; cited from earlier work"}}}
{"substance": "insulin", "values": [{"measurement": "drop in glucose levels", "setting": "[1]; 40 mU/kg IV insulin over 3 minutes, over about 30 minutes", "value": "almost half"}, {"measurement": "time for blood insulin to drop from 1000 to 500", "setting": "[1]; 40 mU/kg IV over 3 minutes", "value": "~3", "unit": "min"}, {"measurement": "burst at which steady state (Cmax and Cmin bands) is reached", "setting": "[2]", "value": "fourth burst"}, {"measurement": "glucose decrease at steady state", "setting": "[3]", "value": "about 25%"}]}
